Assays:
[1] = tested on: patients with Alzheimer's disease; details: cited from earlier work; for Effects on Cognitive Function: cognitive decline in Alzheimer's disease
aged ovariectomized rats = test: Radial arm maze test, Example 2 (chronic estrogen-deficient aged rats); format: in vivo
Method: Thirty-six retired breeder female rats (8-10 months old) were purchased from Harlan Sprague Dawley, Inc. The rats were housed in separate cages and were initially maintained on a 12:12 hour light/dark cycle with access to Chow diet and water ad libitum. All procedures done on the animals were approved by the Animal Care and Use Committee of Wake Forest University. After bilateral ovariectomy, the rats were fed with a casein/lactalbumin-based control diet for about 12 months (until about 2 years of age). The rats were then evaluated in a 8-arm radial arm maze to determine their baseline working memory. […] The rats were tested in the maze at 1 and 3 months after the initiation of the treatments.
After 3 months of treatment, each of the 3 groups were divided randomly into two subgroups. One subgroup was given Hup A orally (0.3 mg/Kg of body weight) in addition to their control regimen or treatment with SPEs or E2 and the other subgroup received no Hup A. After 3 weeks of Hup A supplementation, working memory was reevaluated.
A pellet of fudge brownie (Little Debbie, Mckee Foods, Collegedale, Tenn.) was placed in each of the 8 food wells located at the end of each arm to serve as a reward. The rats were allowed to explore the maze for 10 min or until all eight rewards were eaten. The training session was terminated when the rats were able to eat all 8 rewards within 10 min.
After the training, the rats were tested once per day 4 consecutive days per week for two weeks. One day prior to the test, and during the first three test days, the food intake was reduced to 25% of the normal 40 g/day food intake. A visit to an arm was recorded if the rat reached three-fourths of the length of the arm. The maze performance was recorded as the number of correct choices in the first 8 visits. A mistake was counted if a rat reentered an arm from which the rat has already eaten the bait. A test session of a rat was terminated when the rat ate all eight rewards or 10 min had elapsed. […]

[2] = in vivo; cited from earlier work
patients = details: Tacrine 100 mg/day; cited from earlier work
BuChE (blood) = details: read-out: IC50 BuChE, in vitro; cited from earlier work
liver = details: in vivo; cited from earlier work
[3] = tested on: ovariectomized retired breeder female rats; test: Radial arm maze test, Example 1 (10 months of treatment); format: in vivo; details: oral in diet, given alone
Method: Eight-four retired breeder females (Sprague-Dawley), weighing 300-360 g (8-10 months old), were purchased from Harlan Sprague Dawley, Inc. The rats were housed in separate cages and were initially maintained on a 12:12 hour light/dark cycle with access to Chow diet and water ad libitum. All procedures done on the animals were approved by the Animal Care and Use Committee of Wake Forest University. Upon arrival, the rats were weighed, and then randomized into the 12 treatment groups using a stratified randomization scheme, stratifying by body weight.
Shown in Table 5 below is the 3×4 factorial study design and includes the number of rats that finished the maze tests. […]
After the training, the rats were tested twice per day (in the morning and afternoon) 4 consecutive days per week for two weeks. […] A visit to an arm was recorded if the rat reached three-fourths of the length of the arm. The maze performance was recorded as the number of correct choices in the first 8 visits. A mistake was counted if a rat reentered an arm from which the rat has already eaten the bait. […]
All data were analyzed using BMDP Statistical Software, version 7.0 (Los Angeles, Calif.). Uterine weights expressed as a percentage of body weight and body weight violated the assumption of equal variances, and were not normally distributed. […] Body weight, uterine weight, and maze data were analyzed by 2-way ANOVA. […]

## Nc1ccncc1 [4-aminopyridine]
[1]
  Effects on Cognitive Function: Unchanged/Slight Improvement

## COC(=O)C1=CCCN(C)C1 [Arecoline]
[1]
  Effects on Cognitive Function: Unchanged/Slight Improvement

## CC(C[N+](C)(C)C)OC(N)=O (centres unmarked) [Bethanecol]
[1]
  Effects on Cognitive Function: Unchanged/Slight Improvement

## C/C=C1\[C@H]2C=C(C)C[C@]1(N)c1ccc(=O)[nH]c1C2 [Huperzine A, (5R, 9R, 11E)-5-amino-11-ethylidene-5,6,9,10-tetrahydro-7-methyl-5,9-methanocycloocta(b)pyridin2(1H)-one]
Aged ovariectomized rats; Hup A 0.3 mg/Kg orally for 3 weeks added to E2 treatment
  cognitive function (proportion of animals with improved working memory): slightly improved
Aged ovariectomized rats; Hup A 0.3 mg/Kg orally for 3 weeks added to SPE treatment
  cognitive function (proportion of animals with improved working memory): considerably improved
[1]
  Effects on Cognitive Function: Significant Improvement

## CN1CCCC1c1cccnc1 (centres unmarked) [Nicotine]
[1]
  Effects on Cognitive Function: Slight Improvement

## O=C1CCCN1CC#CCN1CCCC1 [Oxotremorine]
[1]
  Effects on Cognitive Function: Unchanged

## CNC(=O)Oc1ccc2c(c1)[C@]1(C)CCN(C)[C@@H]1N2C [Physostigmine]
[2]
  half-life: short half-life

## CC[C@@H]1C(=O)OC[C@@H]1Cc1cncn1C [Pilocarpine]
[1]
  Effects on Cognitive Function: Unchanged

## Nc1c2c(nc3ccccc13)CCCC2 [Tacrine]
[1]
  Effects on Cognitive Function: Unchanged to Significant Improvement
[1]; in vivo
  improving symptoms of Alzheimer's disease: mildly effective
patients
  Abdominal Cramps: 38 Per Cent of Patients
  Diarrhea: 23 Per Cent of Patients
  Dizziness: 12 Per Cent of Patients
  Excessive Sweating: 4 Per Cent of Patients
  Nausea: 25 Per Cent of Patients
  Polyuria: 25 Per Cent of Patients
  Ptyalsim: 10 Per Cent of Patients
  Vomitin: 15 Per Cent of Patients
BuChE (blood)
  IC50: […]
liver
  liver toxicity: toxic to the liver

## CC12CCC3c4ccc(O)cc4CCC3C1CCC2O (stereo not drawn) [estradiol, 17-β estradiol]
[3]
  performance of the radial arm maze tests: dosedependent improvement
Aged ovariectomized rats; at both 1 and 3 months of treatment, after 12 months of estrogen-deficiency
  maze performance (working memory) versus Ctl group: significantly better

## Lecithin
[1]
  Effects on Cognitive Function: Unchanged/Slight Improvement

## Phosphatidylserine
[1]
  Effects on Cognitive Function: Slight Improvement
